In ChEMBL document CHEMBL1201862, “PubChem BioAssay data set” (2004):
Each block holds one compound with its values, some of them ahead of it. Active and inactive are the calls of the source.

Columns and labels:
[1] = cytotoxicity in HEK-293T cells, dose response, cytotoxicity control for TCR NF-kB inhibitor project, luminescence, T-cell screen hits (AID 489026); type: functional, cell-based;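 further: cells exposed to compound about 14 hours before the viability readout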
[2] = Shn3 3'UTR reporter inhibitors, dose response, cell-based, Clone20 osteoblasts, firefly luciferase, cherry-picked (AID 624132); type: functional;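 further: firefly luciferase luminescence from reporter carrying the Shn3 3'UTR in osteoblasts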
[3] = control 3'UTR Renilla luciferase suppression, dose response, counter-screen for Shn3 inhibitor project, cell-based, Clone20-Shn3RL, cherry-picked (AID 624133); type: functional
[4] = HepG2 cell cytotoxicity, dose response, cytotoxicity control for Shn3 inhibitor project, CellTiter-Glo, cherry-picked (AID 624134); type: functional, cell-based
[5] = molecular target: T1, Histone-lysine N-methyltransferase NSD2 (Homo sapiens, UniProt O96028); type: biochemical
T1 sequence (O96028 whole entry): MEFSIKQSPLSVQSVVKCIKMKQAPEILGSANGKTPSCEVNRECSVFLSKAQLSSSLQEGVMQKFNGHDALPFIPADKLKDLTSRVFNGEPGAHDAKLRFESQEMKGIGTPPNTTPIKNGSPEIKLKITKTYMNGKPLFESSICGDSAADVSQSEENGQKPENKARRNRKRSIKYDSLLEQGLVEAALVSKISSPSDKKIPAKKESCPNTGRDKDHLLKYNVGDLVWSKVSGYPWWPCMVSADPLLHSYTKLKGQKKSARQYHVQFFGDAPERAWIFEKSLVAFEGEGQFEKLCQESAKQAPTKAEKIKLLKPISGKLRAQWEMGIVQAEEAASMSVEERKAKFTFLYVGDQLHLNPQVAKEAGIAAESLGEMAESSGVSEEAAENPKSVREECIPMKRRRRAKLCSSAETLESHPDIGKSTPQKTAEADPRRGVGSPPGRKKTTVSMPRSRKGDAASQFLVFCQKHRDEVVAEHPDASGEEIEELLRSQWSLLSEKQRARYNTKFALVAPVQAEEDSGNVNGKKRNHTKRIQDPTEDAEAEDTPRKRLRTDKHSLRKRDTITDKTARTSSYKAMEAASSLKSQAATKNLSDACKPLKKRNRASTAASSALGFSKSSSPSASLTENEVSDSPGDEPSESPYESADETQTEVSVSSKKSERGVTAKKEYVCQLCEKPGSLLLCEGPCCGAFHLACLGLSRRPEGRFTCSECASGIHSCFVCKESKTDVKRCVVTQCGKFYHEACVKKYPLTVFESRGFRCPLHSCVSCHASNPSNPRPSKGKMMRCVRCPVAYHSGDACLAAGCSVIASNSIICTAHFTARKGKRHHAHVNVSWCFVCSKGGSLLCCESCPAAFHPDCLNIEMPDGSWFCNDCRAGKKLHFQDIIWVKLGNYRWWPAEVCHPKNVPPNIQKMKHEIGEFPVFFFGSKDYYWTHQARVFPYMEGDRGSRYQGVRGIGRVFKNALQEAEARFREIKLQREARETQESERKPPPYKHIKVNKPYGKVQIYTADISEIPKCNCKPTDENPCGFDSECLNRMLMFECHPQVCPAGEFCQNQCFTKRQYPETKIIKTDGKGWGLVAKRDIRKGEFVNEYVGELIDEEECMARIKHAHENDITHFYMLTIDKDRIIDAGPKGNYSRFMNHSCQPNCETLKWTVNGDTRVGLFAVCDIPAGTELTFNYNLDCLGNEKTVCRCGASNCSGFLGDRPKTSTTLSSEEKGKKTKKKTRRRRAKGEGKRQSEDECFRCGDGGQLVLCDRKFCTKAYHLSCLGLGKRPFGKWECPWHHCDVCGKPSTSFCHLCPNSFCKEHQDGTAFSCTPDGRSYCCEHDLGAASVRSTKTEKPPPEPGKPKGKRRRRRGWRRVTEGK

[6] = growth suppression of beta-catenin-knockout colon cells, dose response, cell-based, HCT116, human colon tumor (AID 1045); type: functional;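 further: HCT116 colon tumor cells with beta catenin knocked out; cells exposed to compound for 60 hours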
[7] = growth suppression of PTEN-null colon cells, dose response, cell-based, HCT116 PTEN knockout (AID 1047); type: functional;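 further: HCT116 colon tumor cells with PTEN knocked out; cells exposed to compound for 60 hours before readout; potency for loss of cell viability measured by luminescence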
[8] = molecular target: Genome polyprotein (dengue virus type 2, UniProt P29990); experiment: Dengue-2 NS5 methyltransferase inhibitors, primary screen, biochemical, confirmation dose response (AID 588689); type: functional
[9] = molecular target: Cytochrome P450 2D6 (Homo sapiens, UniProt P10635);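 further: CYP2D6 member of a cytochrome P450 panel assay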
[10] = molecular target: Induced myeloid leukemia cell differentiation protein Mcl-1 (Homo sapiens, UniProt Q07820); type: functional
[11] = molecular target: FAD-linked sulfhydryl oxidase ALR (Homo sapiens, UniProt P55789); experiment: inhibitors of human ALR sulfhydryl oxidase, dose response, biochemical, H2O2 detection, luminescence, cherry-pick (AID 493248)
[12] = inhibitors of intracellular T. cruzi replication, confirmation, NIH3T3 host cells, beta-gal luminescence (AID 2044); type: functional, cell-based;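 further: intracellular parasites grown in NIH/3T3 mouse fibroblasts as host cells; luminescent beta-galactosidase reporter signal from transgenic T. cruzi replicating inside host cells; inhibitors lower the luminescence signal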
[13] = system: H9c2; experiment: cells; type: functional, cell-based; settings: Rattus norvegicus, H9c2, Myocardium;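 further: confirmatory concentration-response retest of ultra-high-throughput screening hits for modulation of myocardial damage; cell death induced by hydrogen peroxide oxidative stress; compound pretreatment for 60 min then peroxide exposure for 2 h; potency is for protecting the cells against peroxide damage rather than for killing them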
[14] = cytotoxicity toward NIH3T3 fibroblasts, dose response, counter-screen, cell-based, ATP luminescence, mouse fibroblasts (AID 2010); type: functional;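 further: cells exposed to compound for about 90 hours before reading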
[15] = LGR2 antagonists, dose response, cell-based, HEK293, CRE-luciferase reporter, cherry pick, set 2 (AID 743343); type: functional;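 further: transfected cells were stimulated with diluted bursicon conditioned medium after compound addition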
[16] = MC4R antagonists, dose response, counter-screen for LGR2 antagonist project, cell-based, plate reader, cherry pick (AID 743444); type: functional;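 further: transfected HEK 293 cells stimulated with alpha-MSH peptide; potency of inhibitors of the alpha-MSH evoked signal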
[17] = cells; type: functional, cell-based; settings: HEK-CNG
[18] = molecular target: T2, Galanin receptor type 3 (Homo sapiens, UniProt O60755); experiment: Fluorescence-based cell-based primary high throughput dose response assay to identify antagonists of the Galanin Receptor 3 (GalR3).; type: functional
T2 sequence (O60755 whole entry): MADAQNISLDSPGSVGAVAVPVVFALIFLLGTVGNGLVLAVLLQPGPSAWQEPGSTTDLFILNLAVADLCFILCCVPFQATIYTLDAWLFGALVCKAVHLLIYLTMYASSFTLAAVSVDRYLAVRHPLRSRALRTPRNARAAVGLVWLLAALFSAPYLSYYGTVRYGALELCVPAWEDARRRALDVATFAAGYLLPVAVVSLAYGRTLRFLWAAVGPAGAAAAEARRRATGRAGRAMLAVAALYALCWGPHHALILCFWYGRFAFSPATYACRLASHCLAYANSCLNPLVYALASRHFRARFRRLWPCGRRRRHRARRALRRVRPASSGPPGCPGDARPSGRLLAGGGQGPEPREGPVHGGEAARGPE

[19] = system: INS1; experiment: beta cell apoptosis inhibitors, cytokine rescue, dose response, luminescence, retest (AID 449756); type: functional, cell-based; settings: Rattus norvegicus;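 further: cell death triggered by IL-1 beta plus TNF-alpha plus IFN-gamma mixture; protective hits raise ATP signal compared with cytokine alone wells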
[20] = inhibitors of clade B AD8 Env fusion, dose response, cell-based, cherry-pick (AID 652062); type: functional;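 further: luciferase signal from cell-cell fusion driven by HIV-1 clade B AD8 Env; potency is for inhibitors of fusion seen as a drop in luminescence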
[21] = inhibitors of HIV Env-driven cell fusion, dose response, cherry-pick (AID 652057); type: functional, cell-based
[22] = off-target signal loss in HeLa-CEM21 co-culture – HeLa F-luc CTL cells, cherry-picked, counter-screen for HIV-1 Env fusion inhibitor project, dose response (AID 652040); type: functional, cell-based;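 further: potency for signal decrease marking cytotoxic or nonspecific inhibition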
[23] = ZM109 Env clade C HIV-1 fusion inhibitors, dose response, HeLa effector, CEM target cells, luciferase, cherry-pick (AID 652058); type: functional, cell-based

Chain of Genome polyprotein (P29990 2492-3391 limits assumed): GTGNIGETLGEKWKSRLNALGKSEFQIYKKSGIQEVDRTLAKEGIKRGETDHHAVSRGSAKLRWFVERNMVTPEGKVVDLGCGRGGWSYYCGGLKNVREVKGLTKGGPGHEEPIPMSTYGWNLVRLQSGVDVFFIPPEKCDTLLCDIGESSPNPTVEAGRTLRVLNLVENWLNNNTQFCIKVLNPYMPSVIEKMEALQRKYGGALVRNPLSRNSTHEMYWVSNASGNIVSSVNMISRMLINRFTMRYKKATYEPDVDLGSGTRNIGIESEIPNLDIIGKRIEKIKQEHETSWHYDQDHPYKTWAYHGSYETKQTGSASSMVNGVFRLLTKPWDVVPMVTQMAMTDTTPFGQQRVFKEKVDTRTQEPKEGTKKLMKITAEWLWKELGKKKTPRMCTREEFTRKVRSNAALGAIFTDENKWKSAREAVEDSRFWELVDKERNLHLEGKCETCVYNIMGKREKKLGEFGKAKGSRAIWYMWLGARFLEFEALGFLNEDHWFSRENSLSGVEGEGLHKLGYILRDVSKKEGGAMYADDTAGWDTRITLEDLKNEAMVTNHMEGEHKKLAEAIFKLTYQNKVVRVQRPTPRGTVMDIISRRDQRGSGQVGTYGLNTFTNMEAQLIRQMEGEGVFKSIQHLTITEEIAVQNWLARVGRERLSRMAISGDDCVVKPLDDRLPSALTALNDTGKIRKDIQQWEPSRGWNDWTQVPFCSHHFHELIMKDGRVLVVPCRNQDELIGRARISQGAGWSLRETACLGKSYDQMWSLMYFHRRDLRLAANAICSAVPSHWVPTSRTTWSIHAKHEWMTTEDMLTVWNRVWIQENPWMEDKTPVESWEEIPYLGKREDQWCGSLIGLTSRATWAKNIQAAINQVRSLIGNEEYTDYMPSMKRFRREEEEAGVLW
Chain of Induced myeloid leukemia cell differentiation protein Mcl-1 (Q07820 whole entry): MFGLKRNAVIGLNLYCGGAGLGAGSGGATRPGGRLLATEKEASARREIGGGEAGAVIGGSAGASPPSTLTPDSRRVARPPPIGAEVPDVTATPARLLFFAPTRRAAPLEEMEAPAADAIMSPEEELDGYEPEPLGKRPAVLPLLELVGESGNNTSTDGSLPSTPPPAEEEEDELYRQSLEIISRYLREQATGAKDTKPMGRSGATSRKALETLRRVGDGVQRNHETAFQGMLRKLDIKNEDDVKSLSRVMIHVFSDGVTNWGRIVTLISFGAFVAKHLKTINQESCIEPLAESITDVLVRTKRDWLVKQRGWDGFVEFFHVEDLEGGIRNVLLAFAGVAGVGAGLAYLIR
Chain of Cytochrome P450 2D6 (P10635 whole entry): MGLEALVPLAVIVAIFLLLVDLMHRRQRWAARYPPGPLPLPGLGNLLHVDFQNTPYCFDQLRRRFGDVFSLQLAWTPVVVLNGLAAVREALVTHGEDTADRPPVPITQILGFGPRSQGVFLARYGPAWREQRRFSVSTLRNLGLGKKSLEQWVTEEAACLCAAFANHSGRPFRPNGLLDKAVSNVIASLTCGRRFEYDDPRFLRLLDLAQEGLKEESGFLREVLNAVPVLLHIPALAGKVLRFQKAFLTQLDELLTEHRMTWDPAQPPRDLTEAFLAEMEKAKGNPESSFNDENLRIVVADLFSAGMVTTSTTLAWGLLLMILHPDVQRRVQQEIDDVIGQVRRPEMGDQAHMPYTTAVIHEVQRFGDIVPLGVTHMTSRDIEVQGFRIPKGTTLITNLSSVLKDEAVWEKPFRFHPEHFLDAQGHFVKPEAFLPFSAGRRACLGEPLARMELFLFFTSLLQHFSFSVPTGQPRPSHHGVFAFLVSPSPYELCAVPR
Chain of FAD-linked sulfhydryl oxidase ALR (P55789 whole entry): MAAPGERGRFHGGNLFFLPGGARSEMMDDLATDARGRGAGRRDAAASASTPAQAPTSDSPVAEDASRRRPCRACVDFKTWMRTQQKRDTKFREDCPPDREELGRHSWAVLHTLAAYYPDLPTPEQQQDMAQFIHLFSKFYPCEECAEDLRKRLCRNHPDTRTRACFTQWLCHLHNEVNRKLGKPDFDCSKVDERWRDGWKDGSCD

SMILES: O=C(Nc1cccc(C(F)(F)F)c1)c1sc(Cl)nc1C(F)(F)F
- IC50 [1]: > 80 µM (inactive)
- AC50 [2]: 9.06 µM (active)
- AC50 [3]: 15.8 µM (active)
- AC50 [4]: > 70 µM (inactive)

- AC50 [5]: > 20 µM (inactive)
SMILES: CCOC(=O)NCCc1c(C)nc2c(c(C)nn2C(C)(C)C)c1C

SMILES: COC(=O)c1ccc(C(=O)NC(=S)Nc2ccc3nc(SC)sc3c2)cc1
- EC50 [6]: 5.03 µM (active)
- EC50 [7]: 5.26 µM (active)

- IC50 [8]: 50 µM (active)
SMILES: CCn1c(SC)nc(=O)c(C(c2ccc(OC)c(O)c2)c2c(O)n(CC)c(SC)nc2=O)c1O

SMILES: COc1ccc(C(=O)Nc2ccc3[nH]c(-c4cccc(OC)c4)cc(=O)c3c2)cc1
- IC50 [1]: > 80 µM (inactive)

SMILES: Cc1ccc(NC(=O)CSc2nc(-c3ccco3)cc(C(F)(F)F)n2)cc1C
- IC50 [1]: > 80 µM (inactive)

- AC50 [9]: 28.2 µM (inconclusive)
- IC50 [10]: 1.14 µM (active)
- AC50 [11]: 17.2 µM (active)
SMILES: COc1ccc(N2CCC(CNC(=O)Nc3ccc(OC)cc3OC)C2)cc1 (stereo unspecified)

SMILES: COc1ccc(C(=O)Nc2cc(C)nn2-c2nc3ccccc3[nH]2)c(OC)c1
- EC50 [12]: 2.51 µM (active)
- IC50 [13]: 7.52 µM (active)
- EC50 [14]: > 60 µM (not active)

- IC50 [10]: 4.36 µM (active)
SMILES: Cc1ccc(-c2ccc(/C=C3/NC(=O)NC3=O)o2)cc1[N+](=O)[O-]

SMILES: Cc1ccc(-c2nc(-c3ccncc3)no2)c(Cl)c1
- AC50 [15]: 10.3 µM (active)
- AC50 [16]: 12.5 µM (active)

SMILES: O=C(O)c1[nH]c2ccccc2c1C(c1cccc(O)c1)c1c(C(=O)O)[nH]c2ccccc12
- IC50 [8]: 23.2 µM (active)

SMILES: Cc1ccc(Oc2nnc(-c3ccccc3)c3ccccc23)cc1
- EC50 [6]: 75.9 µM (active)
- EC50 [7]: 75.7 µM (active)

SMILES: CC(C)(C)c1ccc(C(=O)Nc2ccc(Oc3cccnc3)nc2)cc1
- IC50 [1]: 50.1 µM (inactive)
- EC50 [17]: > 29.9 µM (inactive)
- IC50 [18]: 1.33 µM (active)

SMILES: Cc1c(-c2ccccc2)oc2c(C(=O)OCC(=O)Nc3ccc(C(N)=O)cc3)cccc2c1=O
- IC50 [13]: > 79 µM (inactive)

SMILES: Cc1ccc(O)c(CNc2cccc3cccnc23)c1
- AC50 [5]: > 20 µM (inactive)
- AC50 [19]: 13.2 µM (active)

- IC50 [10]: 6.18 µM (not active)
SMILES: COc1ccc(NC(=O)Cc2c(SC)c3ccccc3n2Cc2ccccc2)cc1

- IC50 [10]: 8.77 µM (not active)
SMILES: CC(C(=O)NC1CCCC1)N(Cc1ccco1)C(=O)c1snc(C(=O)NC2CCCC2)c1N (stereo unspecified)

SMILES: CN1CCN(c2ccc(CNS(=O)(=O)Cc3cccc(C(F)(F)F)c3)cc2)CC1
- EC50 [17]: > 29.9 µM (inactive)
- IC50 [18]: 2.08 µM (active)
- AC50 [19]: 4.36 µM (active)

- IC50 [8]: 36.7 µM (active)
SMILES: O=C(O)CCCN1C(=O)/C(=C\c2ccccc2OCc2ccccc2)SC1=S

SMILES: O=C(Cn1[nH]c(=O)c2ccccc2c1=O)N1CCN(S(=O)(=O)c2ccc(Cl)cc2)CC1
- IC50 [13]: > 79 µM (inactive)

SMILES: COc1ccc2nc(O)c(CN(Cc3nnnn3Cc3ccccc3)CC3CCCO3)cc2c1 (stereo unspecified)
- AC50 [20]: 33.1 µM (active)
- AC50 [21]: 4.18 µM (active)
- IC50 [13]: 16.5 µM (active)
- AC50 [22]: 7.73 µM (active)
- AC50 [23]: 5.31 µM (active)

- IC50 [10]: 2.82 µM (not active)
SMILES: CN(C)c1ccc(C(CNC(=O)c2ccccc2Br)c2c[nH]c3ccccc23)cc1 (stereo unspecified)

SMILES: O=C(COC(=O)c1[nH]nc2ccccc12)NCCc1ccc(Cl)cc1
- EC50 [17]: > 29.9 µM (inactive)
- IC50 [18]: 2.87 µM (active)

SMILES: Cc1ccc2cc(C#N)c(N3CCN(C(=O)c4cccs4)CC3)nc2c1
- IC50 [13]: > 79 µM (inactive)

- AC50 [5]: > 20 µM (inactive)
SMILES: COC(=O)CCCCC1=CCC2C(=O)C=C(O)C2C1 (stereo unspecified)

SMILES: Oc1ccc2c(c1)nc(O)c1ccccc12
- IC50 [13]: > 79 µM (inactive)
